# In patent US20200108032A1, “USE OF ISOFERULIC ACID, ISOFERULIC ACID-CONTAINING TRADITIONAL CHINESE MEDICINE EXTRACT AND CIMICIFUGAE RHIZOMA” (BEIJING DITAN HOSPITAL, CAPITAL MEDICAL UNIVERSITY, priority 2017, published 2020):
# What was measured:
# Type in all cases: in vivo, C57BL/6 mice
# [1] = tested on: mouse model of ConA hepatitis; assay: Survival rate of hepatitis mouse model of ConA; conditions: ConA 25 mg/kg i.v.; drug by gavage (compatibility 7 g/kg, Cimicifugae rhizoma 2 g/kg, total phenolic acid 300 mg/kg crude drug, isoferulic acid 5 mg/kg); observed at 96 h; model group 20%
# Description: Test materials: ConA was purchased from Sigma; isoferulic acid was purchased from Tianjin Fangfang Technology Co., Ltd.
# Animals: C57BL/6 mice, purchased from Beijing Huafukang Biotechnology Co., Ltd.
# Grouping: 50 C57BL/6 mice, male, 18-20 g, after 1 day of adaptive breeding, the mice were randomly divided into 5 groups of 10 in each group: ConA model group, Cimicifugae rhizoma compatibility group, Cimicifugae rhizoma group, Cimicifugae rhizoma total phenolic acid group and isoferulic acid group.
# Model preparation and drug administration: 150 mg of ConA powder were weighed and dissolved in 40 mL of sterile PBS and left at room temperature for 1 to 2 hours; the solution was intermittently shaken gently to mix well. Low temperature ultrasound promoted dissolution (no more than 5 min each time) and avoided excessive foaming. After the solution was fully dissolved, the volume was adjusted to 50 mL, prepared to a concentration of 3 mg/mL, and filtered under pressure with a 0.45 μm filter. Mice were given a single intravenous injection at 25 mg/kg, with 100 μL per mouse. […]
# [2] = tested on: serum cytokines TNF-α, IL-12, IL-6, MCP-1, IFN-γ; assay: Serum cytokine secretion in mouse model of ConA hepatitis; conditions: MEAN ± SEM
# Procedure: The test materials and animals were the same as those in Experimental Example 1.
# Grouping: C57BL/6 mice, male, 18-20 g, after 1 day of adaptive breeding, the mice were randomly divided into 6 groups: normal control group; ConA model group, Cimicifugae rhizoma compatibility group, Cimicifugae rhizoma group, Cimicifugae rhizoma total phenolic acid group and isoferulic acid group.
# Model preparation and drug administration: except the normal control group, mice were injected intravenously once at a dose of ConA 15 mg/kg. The dosages of each drug group were the same as those of Experimental Example 1.
# (3) The effects of drugs in each treatment group on serum cytokine secretion in ConA mice were examined. Six mice from each group. Peripheral blood was collected 3 hours after ConA injection and serum was separated to detect the secretion of cytokines TNF-α, IL-12, IL-6 and MCP-1. Serum was separated 10 hours after ConA injection to detect cells factor IFN-γ secretion.
# Body weight of CIA mice = conditions: day 21 of the second immunization; MEAN ± SEM
# Description: The test materials and animals were the same as those in Experimental Example 3.
# Model preparation and administration: same as in Experimental Example 3. On day 21 of the second immunization, the mice were weighed.
# [3] = tested on: CD48-CD11b+ positive granulocytes; assay: Proportion of granulocytes in CIA arthritis mice (flow cytometry); conditions: CD48-CD11b+ granulocytes to white blood cells; 21 days after second immunization; MEAN ± SEM
# Description: Test materials and animals: CD48 PE and CD11b FITC antibodies were purchased from BD Pharmingen; RBC Lysis Buffer was purchased from Biolegend of the United States; other required reagents were the same as in Experimental Example 3.
# Model preparation and drug administration: the administration dose of each treatment group was the same as that of Experimental Example 3. 21 days after the second immunization, the mice were anesthetized.
# Animal: C57BL/6 mouse, purchased from Beijing Huafukang Biotechnology Co., Ltd.
# Preparation of bone marrow single cell suspension: After anesthesia of C57BL/6 mice, the two pairs of femur and tibia of the mouse were separated, PBS was pipetted with a 2 mL syringe to flush the bone marrow cells into a flow tube, and pipetted repeatedly to obtain the bone marrow single cell suspension. The bone marrow was filtered into a flow tube with a 400-mesh strainer, discarded the supernatant after centrifugation, added 2 mL of RBC Lysis Buffer and lysed at room temperature for 15 min. Discarded the supernatant by centrifugation, harvested the bone marrow cells, resuspended by adding 1 mL of PBS, and repeatedly mixing by pipetting 100 μL into the flow tube for surface staining. […]
# [4] = serum 3 hours after ConA injection
structure (smiles),measurement,setting,value
"COc1ccc(C=CC(=O)O)cc1O [isoferulic acid, 3-hydroxy-4-methoxycinnamic acid]",survival rate of mice,[1],60%
same,IL-6,[2]; [4],1422 ± 214.2 pg/mL
same,IL-12,[2]; [4],183.7 ± 33.4 pg/mL
same,MCP-1,[2]; [4],5708 ± 145.5 pg/mL
same,TNF-α,[2]; [4],260.4 ± 119.5 pg/mL
same,IFN-γ,[2]; serum 10 hours after ConA injection,574 ± 70.4 pg/mL
same,Body weight,Body weight of CIA mice,21.6 ± 0.4 g
same,"proportion of granulocytes, Bone marrow",[3],44.6 ± 5.1 %
same,"proportion of granulocytes, spleen",[3],9 ± 4.4 %
